Results from US12419858B2, “Salt of terphenyl compound” (Taiho Pharmaceutical Co., Ltd., priority 2019, dated 2025).

Legend:
[1] = Moisture absorption/desorption test; conditions: 25° C.; for hygroscopicity / moisture absorption-desorption behaviour (in words): 5% RH to 95% RH and back; for weight change at maximum (moisture absorption/desorption): relative humidity from 5 to 95%
Experimental: Moisture absorption/desorption test was carried out on the following test conditions. A dedicated quartz holder was filled with about 10 mg of sample, and a weight of the sample at each humidity was measured and recorded in a continuous manner under the following conditions.

[2] = Solid stability test (accelerated test); conditions: for Purity, variation (Y) − (X) / Total mass of analogous substance, variation (Y) − (X): 4 weeks at 60° C. sealed versus before storage; for solid stability (in words): 4 weeks at 60° C.; for solid stability (in words) / Purity, 4 weeks after storage at 60° C. on sealed condition (Y) / Total mass of analogous substance, 4 weeks after storage at 60° C. on sealed condition (Y): sealed; for Purity, 4 weeks after storage at 60° C. on sealed condition (Y) / Total mass of analogous substance, 4 weeks after storage at 60° C. on sealed condition (Y) / Purity, before storage (X) / Total mass of analogous substance, before storage (X): HPLC; for Purity, 4 weeks after storage at 60° C. on sealed condition (Y) / Total mass of analogous substance, 4 weeks after storage at 60° C. on sealed condition (Y): 4 weeks at 60° C./ambient humidity
Experimental: Mass of analogous substance in the sample solution was measured by HPLC analysis.

[3] = Pharmacokinetic (PK) studies in rats
Experimental: Each drug was administered to the animal at a dose of 32 mg/5 mL/kg.

Row | Compound | hygroscopicity / moisture absorption-desorption behaviour (in words) [1] | weight change at maximum (moisture absorption/desorption) [1] | Purity, variation (Y) − (X) [2] | Total mass of analogous substance, variation (Y) − (X) [2] | solid stability (in words) [2] | solid stability (in words) ([2]; listed as benzoate) | Purity, 4 weeks after storage at 60° C. on sealed condition (Y) [2] [%] | Total mass of analogous substance, 4 weeks after storage at 60° C. on sealed condition (Y) [2] [%] | Purity, before storage (X) [2] [%] | Total mass of analogous substance, before storage (X) [2] [%] | Cmax ([3]; rats, dose of 32 mg/5 mL/kg) [nM] | Tmax ([3]; rats, dose of 32 mg/5 mL/kg) [h] | hygroscopicity / moisture absorption-desorption behaviour (in words) ([1]; listed as free form) | Cmax ([3]; rat, in vivo, 32 mg/kg) [nM] | Tmax ([3]; rat, in vivo, 32 mg/kg) [h] | AUC ([3]; rats, dose of 32 mg/5 mL/kg) [µM·h]
1 | CC(C)(O)Cc1ccc(-c2ccc(C(=O)N3CC[C@H](N)C3)cc2-c2ccc(C#N)c(F)c2)c(F)c1.O=C(O)c1ccccc1 [benzoic acid salt of Compound A, benzoic acid salt of 4-[5-[(3S)-3-aminopyrrolidine-1-carbonyl]-2-[2-fluoro-4-(2-hydroxy-2-methyl-propyl)phenyl]phenyl]-2-fluoro-benzonitrile] | less adsorptive and/or disorptive of moisture | +0.7 % w/w | +0.13% | −0.13% | almost no analogous substance was generated | stable | 98.06 | 1.94 | 97.93 | 2.07 | 2680 | 2.7 |  |  |  | 
2 | CC(C)(O)Cc1ccc(-c2ccc(C(=O)N3CC[C@H](N)C3)cc2-c2ccc(C#N)c(F)c2)c(F)c1 [free form of Compound A, 4-[5-[(3S)-3-aminopyrrolidine-1-carbonyl]-2-[2-fluoro-4-(2-hydroxy-2-methyl-propyl)phenyl]phenyl]-2-fluoro-benzonitrile] | had the characteristic of channel hydrate | about +5.6 % w/w | −0.37% | +0.37% | poor solid stability |  | 98.15 | 1.85 | 98.52 | 1.48 |  |  | characteristic of hygroscopicity | 2560 | 4 | 
3 | C/C=C/C=C/C(=O)O.CC(C)(O)Cc1ccc(-c2ccc(C(=O)N3CC[C@H](N)C3)cc2-c2ccc(C#N)c(F)c2)c(F)c1 [sorbic acid salt of Compound A, sorbic acid salt of 4-[5-[(3S)-3-aminopyrrolidine-1-carbonyl]-2-[2-fluoro-4-(2-hydroxy-2-methyl-propyl)phenyl]phenyl]-2-fluoro-benzonitrile] | less adsorptive and/or disorptive of moisture | +1.9 % w/w | −0.64% | +0.64% | stable |  | 97.99 | 2.01 | 98.63 | 1.37 | 2030 | 2.3 |  |  |  | 11.64
